Earlier results on six compounds are cited in patent US5840770A, “Method of killing tumor cells” (Hill Medical Corporation, priority 1997, dated 1998).

The subject of data set [1] is cholinergic receptors. The conditions noted are these: in vivo.
Experiment in data set [2]: not given
This is another data set of the same source.

The conditions of data set [3]: normally.
Data set [4] has as its system mouse and rat transplanted tumors. The settings on record: in vivo.
Data set [5] deals with low-grade non-Hodgkin's lymphoma, cutaneous T cell lymphoma, chronic myelogenous leukemia, Kaposi's sarcoma and especially hairy cell leukemia.
Data set [6] concerns serum potassium. The conditions noted are these: in vivo.

`CC[C@@H]1C(=O)OC[C@@H]1Cc1cncn1C` [Pilocarpine, pilocarpine]: in data set [1], the duration was 4 to 8 h and the onset was 15 to 30 min.
With `O=C[C@H](O)[C@@H](O)[C@H](O)[C@H](O)CO` [dextrose], for the setting “0.8 gm/kg/hour”, the infused glucose retained is 95%. Also, under “in vivo”, the “maximum infusion rate without producing glycosuria” value is reported as 0.5 gm/kg/hour. For the same compound, the osmolarity in data set [2] (5% dextrose) is listed as 253 mOsm/L. Also, the tonicity entry in data set [2] (5% dextrose solution) is listed as “isotonic”.
For the compound `[K+]` [potassium], the “potassium intake excreted in the urine” value in data set [3] was 80-90%.
Regarding Glucagon: glucagon alone, in data set [4], the “effect on transplanted tumors” value is “arrested these cancers”.
With Interferon-alpha, the efficacy result in data set [5] (listed lymphomas, leukemias, Kaposi's sarcoma) is recorded as “effective”. Besides, the “effect on other tumors” value in data set [5] (tumors other than those listed) was “no effect”.
Consider insulin, for which, in data set [4], the “effect on transplanted tumors” value is “no therapeutic effect”. Moreover, the serum potassium concentration result in data set [6] was “lowers serum potassium concentration”.
